Measured values published in the Kinase Knowledgebase extract (Sharma et al. 2016).

How the values were obtained:
[1] = molecular target: EGFR (Human), P00533 [T790M/L858R]; conditions: h1975
[2] = molecular target: EGFR (Human), P00533 [Assessment of HCC827 (EGFR Del) Cell Proliferation]
[3] = molecular target: EGFR (human), P00533 [WT]; conditions: a549
[4] = molecular target: EGFR (human), P00533 [WT]; conditions: a431
[5] = molecular target: EGFR (human), P00533 [L858R]
[6] = molecular target: EGFR (Human), P00533 [T790M/L858R]
[7] = molecular target: EGFR (human), P00533 [T790M]
EGFR (human), P00533 [T790M], sequence (P00533 whole entry T790M, looked up): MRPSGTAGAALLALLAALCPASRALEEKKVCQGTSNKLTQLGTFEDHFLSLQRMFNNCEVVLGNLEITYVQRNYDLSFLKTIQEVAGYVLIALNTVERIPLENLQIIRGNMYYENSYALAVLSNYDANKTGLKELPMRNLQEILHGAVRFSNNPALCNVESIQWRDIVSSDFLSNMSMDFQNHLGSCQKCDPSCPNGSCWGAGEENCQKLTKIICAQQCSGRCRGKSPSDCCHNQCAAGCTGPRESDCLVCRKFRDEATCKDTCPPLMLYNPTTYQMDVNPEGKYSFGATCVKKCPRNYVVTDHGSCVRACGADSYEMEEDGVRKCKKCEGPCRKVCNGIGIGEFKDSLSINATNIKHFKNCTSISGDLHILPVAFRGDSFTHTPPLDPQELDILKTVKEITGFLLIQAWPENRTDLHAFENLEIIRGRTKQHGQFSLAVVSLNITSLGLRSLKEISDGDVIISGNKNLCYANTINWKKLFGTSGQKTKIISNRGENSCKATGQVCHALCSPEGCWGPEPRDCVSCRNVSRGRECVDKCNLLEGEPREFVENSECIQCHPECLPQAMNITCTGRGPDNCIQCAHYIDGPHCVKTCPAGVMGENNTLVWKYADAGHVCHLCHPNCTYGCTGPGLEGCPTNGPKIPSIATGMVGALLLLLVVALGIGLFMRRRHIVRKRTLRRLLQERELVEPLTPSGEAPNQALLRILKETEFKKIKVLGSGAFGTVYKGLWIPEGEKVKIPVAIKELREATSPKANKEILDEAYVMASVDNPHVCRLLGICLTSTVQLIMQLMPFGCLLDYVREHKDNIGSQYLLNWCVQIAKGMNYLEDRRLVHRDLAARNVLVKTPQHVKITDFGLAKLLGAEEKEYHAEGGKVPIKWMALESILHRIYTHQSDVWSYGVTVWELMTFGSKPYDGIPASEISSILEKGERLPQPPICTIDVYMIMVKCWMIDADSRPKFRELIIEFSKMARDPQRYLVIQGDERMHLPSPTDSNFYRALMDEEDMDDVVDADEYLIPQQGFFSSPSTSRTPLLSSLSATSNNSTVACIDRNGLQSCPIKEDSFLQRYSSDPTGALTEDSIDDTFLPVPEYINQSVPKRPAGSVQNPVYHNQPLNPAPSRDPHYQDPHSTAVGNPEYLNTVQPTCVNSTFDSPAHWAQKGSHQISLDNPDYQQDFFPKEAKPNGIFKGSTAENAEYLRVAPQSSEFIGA

EGFR (Human), P00533 [T790M/L858R], sequence (P00533 whole entry T790M/L858R, looked up): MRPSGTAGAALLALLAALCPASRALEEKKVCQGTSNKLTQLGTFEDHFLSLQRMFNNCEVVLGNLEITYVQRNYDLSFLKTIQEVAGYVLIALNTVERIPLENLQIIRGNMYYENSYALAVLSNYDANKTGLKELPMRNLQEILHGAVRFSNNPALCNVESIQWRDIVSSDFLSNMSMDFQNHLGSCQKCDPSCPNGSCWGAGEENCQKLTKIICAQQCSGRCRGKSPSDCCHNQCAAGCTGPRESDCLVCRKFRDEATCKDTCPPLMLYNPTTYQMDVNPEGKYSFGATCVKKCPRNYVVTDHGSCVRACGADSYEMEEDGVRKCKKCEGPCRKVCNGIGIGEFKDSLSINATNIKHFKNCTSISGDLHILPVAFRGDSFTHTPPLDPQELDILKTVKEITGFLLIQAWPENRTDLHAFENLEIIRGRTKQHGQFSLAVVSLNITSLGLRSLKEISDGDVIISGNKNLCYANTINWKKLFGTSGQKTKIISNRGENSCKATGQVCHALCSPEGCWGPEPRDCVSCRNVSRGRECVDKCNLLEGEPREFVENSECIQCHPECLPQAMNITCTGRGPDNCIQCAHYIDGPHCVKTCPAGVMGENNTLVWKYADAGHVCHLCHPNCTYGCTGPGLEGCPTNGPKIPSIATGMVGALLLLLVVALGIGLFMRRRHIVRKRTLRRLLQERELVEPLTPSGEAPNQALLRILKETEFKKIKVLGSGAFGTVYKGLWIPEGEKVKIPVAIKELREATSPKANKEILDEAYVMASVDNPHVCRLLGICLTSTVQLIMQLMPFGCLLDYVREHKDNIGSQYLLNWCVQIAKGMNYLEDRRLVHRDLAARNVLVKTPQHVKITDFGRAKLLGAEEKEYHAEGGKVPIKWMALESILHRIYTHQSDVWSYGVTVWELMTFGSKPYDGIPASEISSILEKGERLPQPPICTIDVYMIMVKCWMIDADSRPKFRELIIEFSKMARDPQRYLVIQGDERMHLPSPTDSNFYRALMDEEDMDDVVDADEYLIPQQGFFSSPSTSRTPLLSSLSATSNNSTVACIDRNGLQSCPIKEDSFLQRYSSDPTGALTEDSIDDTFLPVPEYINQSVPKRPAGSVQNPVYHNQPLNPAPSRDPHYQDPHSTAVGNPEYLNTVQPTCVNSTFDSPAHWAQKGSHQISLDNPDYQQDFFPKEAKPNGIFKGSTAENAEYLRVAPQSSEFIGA
EGFR (Human), P00533 [Assessment of HCC827 (EGFR Del) Cell Proliferation], sequence (P00533 whole entry, looked up, stated change not applied): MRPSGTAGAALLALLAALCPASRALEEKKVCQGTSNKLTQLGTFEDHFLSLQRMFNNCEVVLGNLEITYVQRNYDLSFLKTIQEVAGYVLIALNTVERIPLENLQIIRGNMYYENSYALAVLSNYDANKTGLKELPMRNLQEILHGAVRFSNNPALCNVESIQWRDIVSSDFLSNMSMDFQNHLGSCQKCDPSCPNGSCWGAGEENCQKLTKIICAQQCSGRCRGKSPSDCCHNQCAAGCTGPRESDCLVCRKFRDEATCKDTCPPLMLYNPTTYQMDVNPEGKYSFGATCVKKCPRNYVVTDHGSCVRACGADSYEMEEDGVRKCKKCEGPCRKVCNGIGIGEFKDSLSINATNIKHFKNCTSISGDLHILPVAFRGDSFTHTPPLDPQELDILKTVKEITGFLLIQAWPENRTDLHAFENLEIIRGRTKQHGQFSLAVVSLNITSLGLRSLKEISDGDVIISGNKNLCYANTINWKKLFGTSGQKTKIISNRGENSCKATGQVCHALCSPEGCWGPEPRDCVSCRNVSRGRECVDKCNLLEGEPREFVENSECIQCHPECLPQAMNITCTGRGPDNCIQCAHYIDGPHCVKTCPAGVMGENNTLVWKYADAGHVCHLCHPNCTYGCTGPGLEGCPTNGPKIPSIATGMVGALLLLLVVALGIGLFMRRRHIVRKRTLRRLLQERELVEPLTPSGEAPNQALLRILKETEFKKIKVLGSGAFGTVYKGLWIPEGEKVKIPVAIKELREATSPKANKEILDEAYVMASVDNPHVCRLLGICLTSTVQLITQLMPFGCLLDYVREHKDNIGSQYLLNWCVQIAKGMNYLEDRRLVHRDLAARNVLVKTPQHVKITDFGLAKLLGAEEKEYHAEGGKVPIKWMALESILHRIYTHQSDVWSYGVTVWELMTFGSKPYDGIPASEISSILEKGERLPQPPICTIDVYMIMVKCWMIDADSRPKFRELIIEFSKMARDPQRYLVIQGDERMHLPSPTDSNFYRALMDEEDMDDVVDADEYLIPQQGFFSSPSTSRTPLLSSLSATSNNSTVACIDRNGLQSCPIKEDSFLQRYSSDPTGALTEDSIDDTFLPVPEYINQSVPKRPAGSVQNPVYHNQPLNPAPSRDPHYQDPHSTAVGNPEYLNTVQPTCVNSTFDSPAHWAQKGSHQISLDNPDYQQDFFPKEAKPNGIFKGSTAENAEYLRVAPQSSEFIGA
EGFR (human), P00533 [WT], sequence (P00533 whole entry, looked up): as the sequence (P00533 whole entry, looked up, stated change not applied) above

| Compound | IC50 [1] [nM] | IC50 [2] [nM] | IC50 [3] [nM] | IC50 [4] [nM] | IC50 [5] [nM] | IC50 [6] [nM] | IC50 [7] [nM] |
| --- | --- | --- | --- | --- | --- | --- | --- |
| COc1cc(Nc2ncc(Cl)c(Nc3ccccc3C(=O)C(=O)N(C)C)n2)ccc1N1CCC(N(C)C)CC1 | 10 | 20 | 1890 | 10 | – | – | – |
| C=CC(=O)Nc1cc(Nc2ncc(Cl)c(Nc3ccccc3C(=O)C(=O)NC)n2)ccc1OC | 90 | 450 | – | – | – | – | – |
| COc1cc(N2CCC(N(C)C)CC2)ccc1Nc1ncc(Cl)c(Nc2ccccc2C(=O)C(=O)N(C)C)n1 | 860 | 1230 | – | 260 | – | – | – |
| COc1cc(N2CCC(N(C)C)CC2)ccc1Nc1ncc(Cl)c(Nc2ccccc2C(=O)C(=O)N2CCOCC2)n1 | 2860 | – | – | – | – | – | – |
| C=CC(=O)Nc1cc(Nc2ncc(Cl)c(Nc3ccccc3C(=O)C(=O)N(C)C)n2)c(OC)cc1F | 50 | 120 | – | – | – | – | – |
| COc1cc(N2CCC(N(C)C)CC2)ccc1Nc1ncc(Cl)c(Nc2ccccc2C(=O)C(N)=O)n1 | – | 2630 | – | – | 44.3 | 4.08 | 7.52 |
| C=CC(=O)N1CCC(NC(=O)C(=O)c2ccccc2Nc2nc(Nc3ccc(F)c(OC)c3)ncc2Cl)CC1 | 190 | – | – | – | – | – | – |
| C=CC(=O)Nc1cc(Nc2ncc(Cl)c(Nc3ccccc3C(=O)C(=O)N(C)C)n2)c(F)cc1OC | 310 | 1200 | – | – | – | – | – |
| C=CC(=O)Nc1cc(Nc2ncc(Cl)c(Nc3ccccc3C(=O)C(=O)NC)n2)c(F)cc1OC | 650 | 1200 | – | – | – | – | – |
| COc1cc(Nc2ncc(Cl)c(Nc3ccccc3C(=O)C(=O)N(C)C)n2)ccc1F | – | 2330 | – | – | – | – | – |
| CNC(=O)C(=O)c1ccccc1Nc1nc(Nc2ccc(N3CCN(C)CC3)c(OC)c2)ncc1Cl | 150 | 870 | 2080 | – | – | – | – |
| COc1cc(N2CCN(C)CC2)ccc1Nc1ncc(Cl)c(Nc2ccccc2C(=O)C(=O)N2CCOCC2)n1 | 1230 | 2360 | – | – | – | – | – |
| COc1cc(N2CCN(C)CC2)ccc1Nc1ncc(Cl)c(Nc2ccccc2C(=O)C(=O)N(C)C)n1 | 810 | 1630 | – | – | – | – | – |
| C=C(CN1CCOCC1)C(=O)Nc1cccc(Nc2ncc(Cl)c(Nc3ccccc3C(=O)C(=O)N(C)C)n2)c1 | 10 | 30 | 40 | 100 | – | – | – |
| COc1cc(N2CCC(N(C)C)CC2)ccc1Nc1ncc(Cl)c(Nc2ccccc2C(=O)C(=O)NO)n1 | 840 | 940 | – | – | – | – | – |
| C=CC(=O)Nc1cc(Nc2ncc(Cl)c(Nc3ccccc3C(=O)C(=O)N(C)C)n2)c(OC)cc1N1CCN(C)CC1 | 50 | 30 | 620 | 50 | – | – | – |
| C=CC(=O)Nc1cc(Nc2ncc(Cl)c(Nc3ccccc3C(=O)C(=O)N(C)C)n2)ccc1OC | 20 | 120 | – | – | – | – | – |
| CNC(=O)C(=O)c1ccccc1Nc1nc(Nc2ccc(F)c(OC)c2)ncc1Cl | 640 | – | – | – | – | – | – |
| COc1cc(N2CCOCC2)ccc1Nc1ncc(Cl)c(Nc2ccccc2C(=O)C(=O)N(C)C)n1 | 1950 | 1940 | – | – | – | – | – |
| C/C=C/C(=O)Nc1ccc(OC)c(Nc2ncc(Cl)c(Nc3ccccc3C(=O)C(=O)N(C)C)n2)c1 | 310 | 1050 | 1370 | – | – | – | – |
| CNC(=O)C(=O)c1ccccc1Nc1nc(Nc2ccc(N3CCC(N(C)C)CC3)cc2OC)ncc1Cl | 1130 | 900 | – | – | – | – | – |
| C=CC(=O)Nc1cccc(Nc2ncc(Cl)c(Nc3ccccc3C(=O)C(=O)NC)n2)c1 | 100 | 270 | – | – | – | – | – |
| C=CC(=O)Nc1cccc(Nc2ncc(Cl)c(Nc3ccccc3C(=O)C(=O)N(C)C)n2)c1 | 10 | 70 | 640 | – | – | – | – |
| COc1cc(N2CCN(C(C)=O)CC2)ccc1Nc1ncc(Cl)c(Nc2ccccc2C(=O)C(=O)N(C)C)n1 | 210 | 540 | – | 50 | – | – | – |
| C=CC(=O)Nc1ccc(OC)c(Nc2ncc(Cl)c(Nc3ccccc3C(=O)C(=O)N(CC)CC)n2)c1 | 10 | 50 | – | 750 | – | – | – |
| C=CC(=O)Nc1ccc(OC)c(Nc2ncc(Cl)c(Nc3ccccc3C(=O)C(=O)N(C)C)n2)c1 | 20 | 20 | 1580 | 110 | – | – | – |
| C=CC(=O)Nc1cccc(Nc2ncc(C(F)(F)F)c(Nc3ccccc3C(=O)C(N)=O)n2)c1 | 980 | 530 | 370 | – | – | – | – |
| C=C(CN(C)CCN(C)C)C(=O)Nc1ccc(OC)c(Nc2ncc(Cl)c(Nc3ccccc3C(=O)C(=O)N(C)C)n2)c1 | 10 | 20 | – | 210 | – | – | – |
